Laboratory results from the supplement of paper PMC10307832.

Legend:
Experiment in all cases: relative viability (nuclei count vs DMSO), 5 days (fraction); higher = more cells survive
[1] = tested on: NCI-H1915
In short: (§1)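 Relative viability was taken as the ratio of nuclei in treated wells to nuclei in vehicle wells. Lung cancer cell lines in 1536-well plates received compounds by pin tool one day after seeding, either one drug alone or a fixed anchor-drug dose plus five library-drug doses (not always all listed) in √10 steps. Nuclei were counted on 4× images after 5 days of treatment, and values are medians of duplicate plates.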

[2] = tested on: NCI-H1793
In short: as §1

[3] = tested on: LK-2
In short: as §1

[4] = tested on: SK-MES-1
In short: as §1

[5] = tested on: SK-LU-1
In short: as §1

[6] = tested on: NCI-H2087
In short: as §1

[7] = tested on: NCI-H1437
In short: as §1

[8] = tested on: EMC-BAC-2
In short: as §1

[9] = tested on: NCI-H1755
In short: as §1

[10] = tested on: H3255
In short: as §1

[11] = tested on: NCI-H1651
In short: as §1

[12] = tested on: LXF-289
In short: as §1

[13] = tested on: NCI-H2085
In short: as §1

[14] = tested on: CAL-12T
In short: as §1

[15] = tested on: COR-L 105
In short: as §1

[16] = tested on: EKVX
In short: as §1

[17] = tested on: NCI-H661
In short: as §1

[18] = tested on: PC-3 [JPC-3]
In short: as §1

[19] = tested on: LC-2-ad
In short: as §1

[20] = tested on: NCI-H2228
In short: as §1

[21] = tested on: NCI-H1395
In short: as §1

[22] = tested on: NCI-H2347
In short: as §1

[23] = tested on: NCI-H1944
In short: as §1

Work on `O=c1[nH]c2ccccc2n1C1CCN(CCCC(c2ccc(F)cc2)c2ccc(F)cc2)CC1` [Pimozide] + CC(=O)c1c(C)c2cnc(Nc3ccc(N4CCNCC4)cn3)nc2n(C2CCCC2)c1=O [Palbociclib] (partner 0.5 µM) yielded a relative viability ([1]; first compound 0.08 µM) of 0.435, a relative viability ([1]; first compound 0.253 µM) of 0.498 and a relative viability ([1]; first compound 2.53 µM) of 0.501. It also gave a relative viability ([1]; first compound 8 µM) of 0.477, a relative viability ([2]; first compound 0.08 µM) of 0.263 and a relative viability ([2]; first compound 0.253 µM) of 0.289. The relative viability ([2]; first compound 0.8 µM) was 0.306, the relative viability ([2]; first compound 2.53 µM) was 0.285 and the relative viability ([2]; first compound 8 µM) was 0.339. The relative viability ([3]; first compound 0.08 µM) was 0.646, the relative viability ([3]; first compound 0.253 µM) was 0.599 and the relative viability ([3]; first compound 0.8 µM) was 0.698. For the same molecule, the relative viability ([3]; first compound 8 µM) was 0.562, the relative viability ([4]; first compound 0.08 µM) was 0.307 and the relative viability ([4]; first compound 0.253 µM) was 0.298. It also gave a relative viability ([4]; first compound 0.8 µM) of 0.303, a relative viability ([4]; first compound 2.53 µM) of 0.316 and a relative viability ([4]; first compound 8 µM) of 0.314. For the same molecule, the relative viability ([5]; first compound 0.08 µM) was 0.384, the relative viability ([5]; first compound 0.253 µM) was 0.533 and the relative viability ([5]; first compound 0.8 µM) was 0.404. It also gave a relative viability ([5]; first compound 2.53 µM) of 0.377, a relative viability ([5]; first compound 8 µM) of 0.348 and a relative viability ([6]; first compound 0.08 µM) of 0.197. For the same molecule, the relative viability ([6]; first compound 0.253 µM) was 0.233, the relative viability ([6]; first compound 2.53 µM) was 0.274 and the relative viability ([6]; first compound 8 µM) was 0.195. For the same molecule, the relative viability ([7]; first compound 0.08 µM) was 0.338, the relative viability ([7]; first compound 0.253 µM) was 0.328 and the relative viability ([7]; first compound 0.8 µM) was 0.25. For the same molecule, the relative viability ([7]; first compound 2.53 µM) was 0.256, the relative viability ([7]; first compound 8 µM) was 0.265 and the relative viability ([8]; first compound 0.08 µM) was 0.517. It also gave a relative viability ([8]; first compound 0.253 µM) of 0.505, a relative viability ([8]; first compound 0.8 µM) of 0.511 and a relative viability ([8]; first compound 2.53 µM) of 0.506. It also gave a relative viability ([8]; first compound 8 µM) of 0.495, a relative viability ([9]; first compound 0.08 µM) of 0.448 and a relative viability ([9]; first compound 0.253 µM) of 0.337. The relative viability ([9]; first compound 0.8 µM) was 0.447, the relative viability ([9]; first compound 2.53 µM) was 0.416 and the relative viability ([9]; first compound 8 µM) was 0.46. The relative viability ([10]; first compound 0.253 µM) was 0.312, the relative viability ([10]; first compound 0.8 µM) was 0.299 and the relative viability ([10]; first compound 2.53 µM) was 0.307. It also gave a relative viability ([10]; first compound 8 µM) of 0.312, a relative viability ([11]; first compound 0.08 µM) of 0.514 and a relative viability ([11]; first compound 0.253 µM) of 0.466. For the same molecule, the relative viability ([11]; first compound 0.8 µM) was 0.534, the relative viability ([11]; first compound 2.53 µM) was 0.497 and the relative viability ([11]; first compound 8 µM) was 0.546. It also gave a relative viability ([12]; first compound 0.08 µM) of 0.588, a relative viability ([12]; first compound 0.253 µM) of 0.607 and a relative viability ([12]; first compound 0.8 µM) of 0.571. For the same molecule, the relative viability ([12]; first compound 2.53 µM) was 0.574, the relative viability ([12]; first compound 8 µM) was 0.586 and the relative viability ([13]; first compound 0.08 µM) was 0.452. For the same molecule, the relative viability ([13]; first compound 0.253 µM) was 0.483, the relative viability ([13]; first compound 0.8 µM) was 0.438 and the relative viability ([13]; first compound 2.53 µM) was 0.479. The relative viability ([13]; first compound 8 µM) was 0.422, the relative viability ([14]; first compound 0.08 µM) was 0.473 and the relative viability ([14]; first compound 0.253 µM) was 0.416. It also gave a relative viability ([14]; first compound 0.8 µM) of 0.442, a relative viability ([14]; first compound 2.53 µM) of 0.295 and a relative viability ([14]; first compound 8 µM) of 0.269. For the same molecule, the relative viability ([15]; first compound 0.08 µM) was 0.378, the relative viability ([15]; first compound 0.253 µM) was 0.399 and the relative viability ([15]; first compound 0.8 µM) was 0.409. For the same molecule, the relative viability ([15]; first compound 2.53 µM) was 0.426, the relative viability ([15]; first compound 8 µM) was 0.416 and the relative viability ([16]; first compound 0.253 µM) was 0.4. It also gave a relative viability ([16]; first compound 0.8 µM) of 0.343, a relative viability ([16]; first compound 2.53 µM) of 0.387 and a relative viability ([16]; first compound 8 µM) of 0.37. The relative viability ([17]; first compound 0.08 µM) was 0.4, the relative viability ([17]; first compound 0.253 µM) was 0.412 and the relative viability ([17]; first compound 0.8 µM) was 0.367. For the same molecule, the relative viability ([17]; first compound 2.53 µM) was 0.395, the relative viability ([17]; first compound 8 µM) was 0.327 and the relative viability ([18]; first compound 0.253 µM) was 0.551. It also gave a relative viability ([18]; first compound 0.8 µM) of 0.481, a relative viability ([18]; first compound 2.53 µM) of 0.544 and a relative viability ([18]; first compound 8 µM) of 0.509. It also gave a relative viability ([19]; first compound 0.08 µM) of 0.517, a relative viability ([19]; first compound 0.253 µM) of 0.474 and a relative viability ([19]; first compound 0.8 µM) of 0.475. It also gave a relative viability ([19]; first compound 2.53 µM) of 0.472, a relative viability ([19]; first compound 8 µM) of 0.482 and a relative viability ([20]; first compound 0.08 µM) of 0.517. The relative viability ([20]; first compound 0.253 µM) was 0.58, the relative viability ([20]; first compound 0.8 µM) was 0.606 and the relative viability ([20]; first compound 2.53 µM) was 0.587. For the same molecule, the relative viability ([20]; first compound 8 µM) was 0.417, the relative viability ([21]; first compound 0.08 µM) was 0.579 and the relative viability ([21]; first compound 0.253 µM) was 0.655. For the same molecule, the relative viability ([21]; first compound 0.8 µM) was 0.538, the relative viability ([21]; first compound 2.53 µM) was 0.623 and the relative viability ([21]; first compound 8 µM) was 0.578. For the same molecule, the relative viability ([22]; first compound 0.08 µM) was 0.432, the relative viability ([22]; first compound 0.253 µM) was 0.418 and the relative viability ([22]; first compound 0.8 µM) was 0.463. For the same molecule, the relative viability ([22]; first compound 2.53 µM) was 0.455, the relative viability ([22]; first compound 8 µM) was 0.407 and the relative viability ([23]; first compound 0.08 µM) was 0.333. The relative viability ([23]; first compound 2.53 µM) was 0.253 and the relative viability ([23]; first compound 8 µM) was 0.334.
